From ChEMBL document CHEMBL1201862, “PubChem BioAssay data set” (2004)
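Following 48 hours of exposure in 96-well plates, responses at five concentrations were used to interpolate endpoints linearly. GI50 marks 50% less growth.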 Calls of active or inactive are those of the source. Rule as the data show it: active = GI50 up to about 1.1 µM and inactive = higher.

Columns and labels:
Assay in all cases: growth of human tumour cells (NCI), 48 h
A549 = test system: A549
CAKI-1 = test system: CAKI-1
COLO 205 = test system: COLO 205
HCC 2998 = test system: HCC 2998
HCT-116 = test system: HCT-116
HT-29 = test system: HT-29
KM12 = test system: KM12
M14 = test system: M14
MCF7 = test system: MCF7
MDA-N = test system: MDA-N
Malme-3M = test system: Malme-3M
NCI-H226 = test system: NCI-H226
NCI-H23 = test system: NCI-H23
NCI-H460 = test system: NCI-H460
OVCAR-8 = test system: OVCAR-8
SF-268 = test system: SF-268
SN12C = test system: SN12C
SNB-19 = test system: SNB-19
UO-31 = test system: UO-31
HOP-92 = test system: HOP-92

COCCOCCOCCC(=O)NC1CC2CCC1(C)C2(C)C (centres undefined)
GI50 (A549): > 100 µM (inactive) | GI50 (CAKI-1): > 100 µM (inactive) | GI50 (COLO 205): > 100 µM (inactive) | GI50 (HCC 2998): > 100 µM (inactive) | GI50 (HCT-116): > 100 µM (inactive) | GI50 (HT-29): > 100 µM (inactive) | GI50 (KM12): > 100 µM (inactive) | GI50 (M14): > 100 µM (inactive) | GI50 (MCF7): > 100 µM (inactive) | GI50 (MDA-N): > 100 µM (inactive) | GI50 (Malme-3M): > 100 µM (inactive) | GI50 (NCI-H226): > 100 µM (inactive) | GI50 (NCI-H23): > 100 µM (inactive) | GI50 (NCI-H460): > 100 µM (inactive) | GI50 (OVCAR-8): > 100 µM (inactive) | GI50 (SF-268): > 100 µM (inactive) | GI50 (SN12C): > 100 µM (inactive) | GI50 (SNB-19): > 100 µM (inactive) | GI50 (UO-31): > 100 µM (inactive)

Cc1cn(C2CC(n3cc(Cn4cc(Br)c(=O)[nH]c4=O)nn3)C(CO)O2)c(=O)[nH]c1=O (centres undefined)
GI50 (A549): > 100 µM (inactive) | GI50 (CAKI-1): > 100 µM (inactive) | GI50 (COLO 205): > 100 µM (inactive) | GI50 (HCC 2998): > 100 µM (inactive) | GI50 (HCT-116): 52.5 µM (inactive) | GI50 (HOP-92): 20.4 µM (inactive) | GI50 (KM12): 47.3 µM (inactive) | GI50 (M14): > 100 µM (inactive) | GI50 (MCF7): > 100 µM (inactive) | GI50 (MDA-N): 62.2 µM (inactive) | GI50 (Malme-3M): > 100 µM (inactive) | GI50 (NCI-H23): > 100 µM (inactive) | GI50 (OVCAR-8): 13 µM (inactive) | GI50 (SF-268): > 100 µM (inactive) | GI50 (SN12C): > 100 µM (inactive) | GI50 (SNB-19): 37.8 µM (inactive) | GI50 (UO-31): 88.1 µM (inactive)

Cn1c(=O)c2nc(CCS)[nH]c2n(C)c1=O
GI50 (A549): > 100 µM (inactive) | GI50 (CAKI-1): > 100 µM (inactive) | GI50 (COLO 205): > 100 µM (inactive) | GI50 (HCT-116): > 100 µM (inactive) | GI50 (HOP-92): > 100 µM (inactive) | GI50 (HT-29): > 100 µM (inactive) | GI50 (KM12): > 100 µM (inactive) | GI50 (M14): > 100 µM (inactive) | GI50 (MCF7): > 100 µM (inactive) | GI50 (MDA-N): > 100 µM (inactive) | GI50 (Malme-3M): > 100 µM (inactive) | GI50 (NCI-H226): > 100 µM (inactive) | GI50 (NCI-H23): > 100 µM (inactive) | GI50 (NCI-H460): > 100 µM (inactive) | GI50 (OVCAR-8): > 100 µM (inactive) | GI50 (SF-268): 35.6 µM (inactive) | GI50 (SN12C): > 100 µM (inactive) | GI50 (SNB-19): > 100 µM (inactive) | GI50 (UO-31): > 100 µM (inactive)

O=C1CCC[C@H]2O[C@@H](COCc3ccccc3)C[C@@H]12
GI50 (A549): > 100 µM (inactive) | GI50 (CAKI-1): > 100 µM (inactive) | GI50 (COLO 205): > 100 µM (inactive) | GI50 (HCT-116): > 100 µM (inactive) | GI50 (HOP-92): > 100 µM (inactive) | GI50 (HT-29): > 100 µM (inactive) | GI50 (KM12): > 100 µM (inactive) | GI50 (M14): > 100 µM (inactive) | GI50 (MCF7): > 100 µM (inactive) | GI50 (MDA-N): > 100 µM (inactive) | GI50 (NCI-H226): > 100 µM (inactive) | GI50 (NCI-H23): > 100 µM (inactive) | GI50 (NCI-H460): > 100 µM (inactive) | GI50 (OVCAR-8): > 100 µM (inactive) | GI50 (SF-268): > 100 µM (inactive) | GI50 (SN12C): > 100 µM (inactive) | GI50 (SNB-19): > 100 µM (inactive) | GI50 (UO-31): > 100 µM (inactive)

CCOC(=O)c1c[nH]c(C(=O)C=[N+]=[N-])c1C1CCN(CC)C1=S (centres undefined)
GI50 (A549): > 100 µM (inactive) | GI50 (CAKI-1): > 100 µM (inactive) | GI50 (COLO 205): 63.5 µM (inactive) | GI50 (HCC 2998): > 100 µM (inactive) | GI50 (HCT-116): > 100 µM (inactive) | GI50 (HOP-92): > 100 µM (inactive) | GI50 (HT-29): > 100 µM (inactive) | GI50 (KM12): > 100 µM (inactive) | GI50 (M14): > 100 µM (inactive) | GI50 (MCF7): > 100 µM (inactive) | GI50 (MDA-N): > 100 µM (inactive) | GI50 (Malme-3M): > 100 µM (inactive) | GI50 (NCI-H23): 99.8 µM (inactive) | GI50 (NCI-H460): 93.3 µM (inactive) | GI50 (OVCAR-8): > 100 µM (inactive) | GI50 (SF-268): > 100 µM (inactive) | GI50 (SNB-19): > 100 µM (inactive) | GI50 (UO-31): > 100 µM (inactive)

CC(C)NC1(C(N)=O)CCN(Cc2ccccc2)CC1
GI50 (A549): > 100 µM (inactive) | GI50 (CAKI-1): > 100 µM (inactive) | GI50 (COLO 205): > 100 µM (inactive) | GI50 (HCT-116): > 100 µM (inactive) | GI50 (HOP-92): > 100 µM (inactive) | GI50 (HT-29): > 100 µM (inactive) | GI50 (KM12): > 100 µM (inactive) | GI50 (M14): > 100 µM (inactive) | GI50 (MCF7): > 100 µM (inactive) | GI50 (MDA-N): > 100 µM (inactive) | GI50 (Malme-3M): > 100 µM (inactive) | GI50 (NCI-H226): > 100 µM (inactive) | GI50 (NCI-H23): > 100 µM (inactive) | GI50 (NCI-H460): > 100 µM (inactive) | GI50 (OVCAR-8): > 100 µM (inactive) | GI50 (SF-268): > 100 µM (inactive) | GI50 (SN12C): > 100 µM (inactive) | GI50 (SNB-19): > 100 µM (inactive) | GI50 (UO-31): > 100 µM (inactive)

COC(=O)c1cc(C)n(CN(Cc2ccccc2)Cn2nc(C(=O)OC)cc2C)n1
GI50 (A549): > 100 µM (inactive) | GI50 (CAKI-1): > 69.2 µM (inactive) | GI50 (COLO 205): > 46.9 µM (inactive) | GI50 (HCT-116): > 43 µM (inactive) | GI50 (HOP-92): > 73.5 µM (inactive) | GI50 (HT-29): > 52.7 µM (inactive) | GI50 (KM12): > 100 µM (inactive) | GI50 (M14): > 100 µM (inactive) | GI50 (MCF7): > 66.5 µM (inactive) | GI50 (MDA-N): > 92.5 µM (inactive) | GI50 (Malme-3M): > 100 µM (inactive) | GI50 (NCI-H226): > 100 µM (inactive) | GI50 (NCI-H23): > 100 µM (inactive) | GI50 (NCI-H460): > 100 µM (inactive) | GI50 (OVCAR-8): > 84.1 µM (inactive) | GI50 (SF-268): > 89.9 µM (inactive) | GI50 (SN12C): > 100 µM (inactive) | GI50 (SNB-19): > 100 µM (inactive) | GI50 (UO-31): > 46.1 µM (inactive)

COc1ccccc1/C=C1\SC(=S)N(/C=C2\C(=O)Oc3ccccc3C2=O)C1=O
GI50 (A549): 27.9 µM (inactive) | GI50 (CAKI-1): 0.458 µM (active) | GI50 (COLO 205): 24 µM (inactive) | GI50 (HCT-116): 34.4 µM (inactive) | GI50 (HOP-92): 18.4 µM (inactive) | GI50 (HT-29): 38.7 µM (inactive) | GI50 (KM12): 34.3 µM (inactive) | GI50 (M14): 36.2 µM (inactive) | GI50 (MCF7): 35.5 µM (inactive) | GI50 (MDA-N): 33.4 µM (inactive) | GI50 (Malme-3M): 23.2 µM (inactive) | GI50 (NCI-H226): 35.3 µM (inactive) | GI50 (NCI-H23): 1.62 µM (inactive) | GI50 (OVCAR-8): 28.8 µM (inactive) | GI50 (SF-268): 33.3 µM (inactive) | GI50 (SNB-19): 32.7 µM (inactive) | GI50 (UO-31): 23.2 µM (inactive)

CC(C)(C)C1=CC(=CC=C2C=CN(CCCCCCCCCCCO)C=C2)C=C(C(C)(C)C)C1=O
GI50 (A549): 1.62 µM (inactive) | GI50 (CAKI-1): 2.48 µM (inactive) | GI50 (COLO 205): 1.69 µM (inactive) | GI50 (HCC 2998): 0.838 µM (active) | GI50 (HCT-116): 0.951 µM (active) | GI50 (HOP-92): 1.83 µM (inactive) | GI50 (HT-29): 3.37 µM (inactive) | GI50 (KM12): 1.83 µM (inactive) | GI50 (M14): 1.75 µM (inactive) | GI50 (MCF7): 0.796 µM (active) | GI50 (MDA-N): 1.87 µM (inactive) | GI50 (Malme-3M): 1.46 µM (inactive) | GI50 (NCI-H23): 2.03 µM (inactive) | GI50 (NCI-H460): 2.01 µM (inactive) | GI50 (OVCAR-8): 1.31 µM (inactive) | GI50 (SF-268): 1.57 µM (inactive) | GI50 (SN12C): 1.25 µM (inactive) | GI50 (SNB-19): 1.58 µM (inactive) | GI50 (UO-31): 1.76 µM (inactive)

O=c1c2nn[nH]c2nc2n1CC(c1ccccc1)S2 (centres undefined)
GI50 (A549): > 100 µM (inactive) | GI50 (CAKI-1): 13 µM (inactive) | GI50 (COLO 205): > 100 µM (inactive) | GI50 (HCC 2998): > 100 µM (inactive) | GI50 (HCT-116): > 100 µM (inactive) | GI50 (KM12): > 100 µM (inactive) | GI50 (MCF7): > 100 µM (inactive) | GI50 (MDA-N): > 100 µM (inactive) | GI50 (Malme-3M): > 100 µM (inactive) | GI50 (NCI-H226): > 100 µM (inactive) | GI50 (NCI-H23): > 100 µM (inactive) | GI50 (NCI-H460): > 100 µM (inactive) | GI50 (OVCAR-8): > 100 µM (inactive) | GI50 (SF-268): > 100 µM (inactive) | GI50 (SN12C): > 100 µM (inactive) | GI50 (SNB-19): > 100 µM (inactive) | GI50 (UO-31): 45.3 µM (inactive)

COc1cc(S(=O)(=O)N/N=C/C=C/c2ccccc2)c(OC)cc1NC(C)=O
GI50 (A549): > 100 µM (inactive) | GI50 (CAKI-1): 16 µM (inactive) | GI50 (COLO 205): 17.7 µM (inactive) | GI50 (HCT-116): 91.2 µM (inactive) | GI50 (HOP-92): 30.3 µM (inactive) | GI50 (HT-29): 9.62 µM (inactive) | GI50 (KM12): 42.3 µM (inactive) | GI50 (M14): 21.9 µM (inactive) | GI50 (MCF7): 52.2 µM (inactive) | GI50 (MDA-N): 78.9 µM (inactive) | GI50 (Malme-3M): 35.6 µM (inactive) | GI50 (NCI-H23): 41.8 µM (inactive) | GI50 (OVCAR-8): 12.2 µM (inactive) | GI50 (SF-268): 35.4 µM (inactive) | GI50 (SN12C): 51.9 µM (inactive) | GI50 (SNB-19): > 100 µM (inactive) | GI50 (UO-31): 42.9 µM (inactive)
